Experimental findings from PubChem BioAssay AID504626 (Southern Research Specialized Biocontainment Screening …, 2011) are described below.

Molecules are shown by their SMILES.

This assay has as its system human PBMC, CCR5-tropic HIV-1 replication, RT activity. Description: inhibitors of CCR5-tropic HIV-1 replication in PBMCs, dose response, cell-based, human PBMC, R5-tropic strain, set 3 (AID 504626).

The IC50 is the concentration that gives 50% inhibition. Take `Cc1c2c(=O)n(-c3nc4ccccc4s3)nc-2cc(O)n1Cc1ccccc1`: the 50% inhibitory concentration (IC50) is 1570 nM.
